Laboratory results: patent US9834554B2, “BTK inhibitors” (MERCK SHARP & DOHME CORP., priority 2013, dated 2017)

target: BTK enzyme (recombinant full-length BTK, hBTK) (Homo sapiens (Human), UniProt Q06187); assay: Btk enzyme activity assay, LANCE TR-FRET; conditions: not given
Sequence (Q06187 whole entry): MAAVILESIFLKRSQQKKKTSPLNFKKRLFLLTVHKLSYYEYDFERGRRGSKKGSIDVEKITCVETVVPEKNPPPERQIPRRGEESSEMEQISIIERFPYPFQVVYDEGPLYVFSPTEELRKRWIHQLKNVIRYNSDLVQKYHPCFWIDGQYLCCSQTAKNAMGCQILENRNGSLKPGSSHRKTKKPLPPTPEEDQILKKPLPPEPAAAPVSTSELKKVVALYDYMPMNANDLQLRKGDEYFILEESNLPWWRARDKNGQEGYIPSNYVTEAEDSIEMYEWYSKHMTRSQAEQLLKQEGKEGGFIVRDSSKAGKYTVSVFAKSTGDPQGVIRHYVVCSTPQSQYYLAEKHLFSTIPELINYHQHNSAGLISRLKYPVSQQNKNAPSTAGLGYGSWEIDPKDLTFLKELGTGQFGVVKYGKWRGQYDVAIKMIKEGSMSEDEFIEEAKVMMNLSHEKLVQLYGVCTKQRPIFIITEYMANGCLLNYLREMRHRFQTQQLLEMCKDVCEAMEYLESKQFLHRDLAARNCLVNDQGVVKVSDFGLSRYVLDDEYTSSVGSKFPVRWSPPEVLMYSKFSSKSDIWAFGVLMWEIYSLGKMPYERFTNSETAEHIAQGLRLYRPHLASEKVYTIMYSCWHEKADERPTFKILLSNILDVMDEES

In the case of `Nc1nccc2c([C@@H]3CC[C@H]4CCC(=O)N4C3)nn(-c3ccc(C(=O)Nc4cc(C(F)(F)F)ccn4)cc3)c12` [Example 38, 4-{7-amino-3-[(6R,8aS)-3-oxooctahydroindolizin-6-yl]-1H-pyrazolo[3,4-c]pyridin-1-yl}-N-[4-(trifluoromethyl)pyridin-2-yl]benzamide], the IC50 is reported as 0.17 nM.

same assay, conditions: read-out: BTK binding IC50; 50 pM hBTK, 2 μM biotin-A5-peptide, 25 μM ATP; 60 minute compound & enzyme incubation

In order of falling IC50:
1. C[C@@H](O)C(=O)N1C[C@H](c2nn(-c3ccc(C(=O)Nc4cccc(OC5CC5)c4)cc3)c3c(N)nccc23)CC[C@@H]1C [Example 36, 4-(7-amino-3-((3R,6S)-1-((R)-2-hydroxypropanoyl)-6-methylpiperidin-3-yl)-1H-pyrazolo[3,4-c]pyridin-1-yl)-N-(3-cyclopropoxyphenyl)benzamide]  30.4 nM
2. Nc1nccc2c([C@@H]3CC[C@H]4CCC(=O)N4C3)nn(-c3ccc(C(=O)Nc4cc(C(F)(F)F)ccn4)cc3OC3CC3)c12 [Example 39, 4-{7-amino-3-[(6R,8aS)-3-oxooctahydroindolizin-6-yl]-1H-pyrazolo[3,4-c]pyridin-1-yl}-3-(cyclopropyloxy)-N-[4-(trifluoromethyl)pyridin-2-yl] benzamide]  2.8 nM
3. COc1cc(C(=O)Nc2cccc(C(F)(F)F)c2)ccc1-n1nc([C@@H]2CC[C@H](C)N(C(=O)C3CC3)C2)c2ccnc(N)c21 [Example 37, 4-(7-amino-3-((3R,6S)-1-(cyclopropanecarbonyl)-6-methylpiperidin-3-yl)-1H-pyrazolo[3,4-c]pyridin-1-yl)-3-methoxy-N-(3-(trifluoromethyl)phenyl)benzamide]  2.1 nM
4. CO[C@@H](C)C(=O)N1C[C@H](c2nn(-c3ccc(C(=O)Nc4cc(C5CC5)ccn4)cc3)c3c(N)nccc23)CC[C@@H]1C [Example 33, 4-(7-amino-3-{(3R,6S)-1-[(2S)-2-methoxypropanoyl]-6-methylpiperidin-3-yl}-1H-pyrazolo[3,4-c]pyridin-1-yl)-N-(4-cyclopropylpyridin-2-yl)benzamide]  2 nM
5. COc1ccnc(NC(=O)c2ccc(-n3nc([C@@H]4CCCN(C(=O)C(C)(CO)CO)C4)c4ccnc(N)c43)cc2)c1 [Example 29, (R)-4-(7-amino-3-(1-(3-hydroxy-2-(hydroxymethyl)-2-methylpropanoyl)piperidin-3-yl)-1H-pyrazolo[3,4-c]pyridin-1-yl)-N-(4-methoxypyridin-2-yl)benzamide 2,2,2-trifluoroacetate]  1.6 nM
6. C[C@H](O)C(=O)N1C[C@H](c2nn(-c3ccc(C(=O)Nc4cc(C5CC5)ccn4)cc3)c3c(N)nccc23)CC[C@@H]1C [Example 32, 4-(7-amino-3-{(3R,6S)-1-[(2S)-2-hydroxypropanoyl]-6-methylpiperidin-3-yl}-1H-pyrazolo[3,4-c]pyridin-1-yl)-N-(4-cyclopropylpyridin-2-yl)benzamide]  1.6 nM
7. C[C@H]1CC[C@@H](c2nn(-c3ccc(C(=O)Nc4cc(C5CC5)ccn4)cc3)c3c(N)nccc23)CN1C(=O)C1CC1 [Example 31, 4-{7-amino-3-[(3R,6S)-1-(cyclopropylcarbonyl)-6-methylpiperidin-3-yl]-1H-pyrazolo[3,4-c]pyridin-1-yl}-N-(4-cyclopropylpyridin-2-yl)benzamide]  1.3 nM
8. COc1cc(C(=O)Nc2cc(C(F)(F)F)ccn2)ccc1-n1nc([C@@H]2CC[C@H]3CCC(=O)N3C2)c2ccnc(N)c21 [Example 40, 4-{7-amino-3-[(6R,8aS)-3-oxooctahydroindolizin-6-yl]-1H-pyrazolo[3,4-c]pyridin-1-yl}-3-methoxy-N-[4-(trifluoromethyl)pyridin-2-yl] benzamide]  1.1 nM
9. C[C@H]1CC[C@@H](c2nn(-c3ccc(C(=O)Nc4cc(C5CC5)ccn4)cc3)c3c(N)nccc23)CN1C(=O)C1(C)COC1 [Example 30, 4-(7-amino-3-((3R,6S)-6-methyl-1-(3-methyloxetane-3-carbonyl)piperidin-3-yl)-1H-pyrazolo[3,4-c]pyridin-1-yl)-N-(4-cyclopropylpyridin-2-yl)benzamide]  0.98 nM
10. C[C@H]1CC[C@@H](c2nn(-c3ccc(C(=O)Nc4cccc(OC5CC5)c4)cc3)c3c(N)nccc23)CN1C(=O)C1(C)COC1 [Example 35, 4-(7-amino-3-((3R,6S)-6-methyl-1-(3-methyloxetane-3-carbonyl)piperidin-3-yl)-1H-pyrazolo[3,4-c]pyridin-1-yl)-N-(3-cyclopropoxyphenyl)benzamide]  0.96 nM
11. C[C@H]1CC[C@@H](c2nn(-c3ccc(C(=O)Nc4cccc(OC5CC5)c4)cc3)c3c(N)nccc23)CN1C(=O)C1CC1 [Example 34, 4-(7-amino-3-((3R,6S)-1-(cyclopropanecarbonyl)-6-methylpiperidin-3-yl)-1H-pyrazolo[3,4-c]pyridin-1-yl)-N-(3-cyclopropoxyphenyl)benzamide]  0.87 nM
12. COc1ccnc(NC(=O)c2ccc(-n3nc([C@@H]4CCCN(C(=O)C5(C)COC5)C4)c4ccnc(N)c43)cc2)c1 [Example 28, (R)-4-(7-amino-3-(1-(3-methyloxetane-3-carbonyl)piperidin-3-yl)-1H-pyrazolo[3,4-c]pyridin-1-yl)-N-(4-methoxypyridin-2-yl)benzamide 2,2,2-trifluoroacetate]  0.49 nM
13. CCOc1cc(C(=O)Nc2cc(C(F)(F)F)ccn2)ccc1-n1nc([C@@H]2CC[C@H]3CCC(=O)N3C2)c2ccnc(N)c21 [Example 41, 4-{7-amino-3-[(6R,8aS)-3-oxooctahydroindolizin-6-yl]-1H-pyrazolo[3,4-c]pyridin-1-yl}-3-ethoxy-N-[4-(trifluoromethyl)pyridin-2-yl] benzamide]  0.44 nM
